# Assay results from patent publication US11707474B2, “Methods for treating acute myeloid leukemia and related conditions” (GlycoMimetics, Inc., priority 2018, dated 2023).
# Assays:
# [1] = Exposure-response analysis for adverse events; type: in vivo, human; conditions: 53 R/R and 25 newly diagnosed older AML subjects, with chemotherapy
# Experimental: For Example 15, Exposure-Response (“E-R”) analysis evaluating adverse events against PK metrics was conducted. The sample population for Example 15 included 53 subjects with relapsed/refractory (R/R) AML and 25 older subjects (aged 60 years or older) with newly diagnosed AML. R/R AML subjects were administered MEC chemotherapy and 5, 10, and 20 mg/kg of a compound of Formula (I) BID (i.e., 10, 20, and 40 mg/kg per day). The older subjects (aged 60 years or older) with newly diagnosed AML were administered 7+3 chemotherapy and 10 mg/kg of a compound of Formula (I) BID (i.e., 20 mg/kg per day).
# Exposure metrics for the adverse events (“AE”) analysis were generated using the same Pop-PK model described in Example 14. […] Cumulative AUC was determined through each study day. For each metric/day combination, percentile rankings and normalized values were determined. For example, the median of Day 6 AUC values was determined, and normalized values were obtained by dividing each value by the median. In addition, these Day 6 AUC values were ranked, and then multiplied by 100% divided by the number of values to obtain a percentile value.
# Adverse events (“AEs”) were classified according the Common Terminology Criteria for Adverse Events (“CTCAE”). […]
# human AML blasts = experiment: Orthotopic model of human AML with cytarabine and DNR; type: in vivo, NOD-SCID mice
# Experimental: The impact of a compound of Formula (I) on survival was evaluated in NOD-SCID mice in an orthotopic model of human AML in combination with cytarabine and DNR.
# 10 mg/kg per day was identified as the minimally active murine dose that augmented cytarabine and DNR survival benefits.
# [2] = test system: relapsed/refractory (R/R) acute myeloid leukemia (AML); experiment: Phase 2 clinical outcomes, relapsed/refractory AML, sodium salt infusion with MEC; type: in vivo, human
# Experimental: In this Phase 2 study related to the Phase 1 study described above (see Example 13), 47 additional subjects were administered the RP2D dose of 10 mg/kg/dose. The data of the 19 subjects in the 10 mg/kg/dose arm of the Phase 1 study was added to the data of these 47 additional subjects, resulting in data for 66 human subjects being considered in the Phase 2 study.
# In detail, consistent with the Phase 1 study protocols, a total of 66 human subjects with relapsed/refractory (R/R) acute myeloid leukemia (AML) were selected for this study (i.e., the 19 subjects from the 10 mg/kg/dose arm of the Phase 1 study plus 47 additional subjects).
# Whether as part of the Phase 1 study (for 19 of the subjects) or as an additional subject for the Phase 2 study, each subject received a total of 15 infusions of the RP2D dose of 10 mg/kg/dose of the compound of Formula (I), administered as the sodium salt, over 8 days with a nominal infusion duration of 20 minutes (either as part of the Phase 1 study for 19 subjects or as a new Phase 2). The formulation for the infusion solution was as follows: […]
# The first dose of a compound of Formula (I) was administered 24 hours±1 hour prior to the first dose of MEC (mitoxantrone, etoposide, and cytarabine) induction chemotherapy as a sentinel dose to evaluate the effect of the compound of Formula (I) alone (i.e., a single dose of 10 mg/kg the day before the first chemotherapy day). The compound of Formula (I) was then administered every 12 hours±1 hour on chemotherapy days, starting 2 hours prior to chemotherapy (i.e., 20 mg/kg per day on chemotherapy days). […] MEC chemotherapy was administered on Days 2-6.
# (§1) The clinical outcome for each subject was assessed at the time of count recovery following completion of induction chemotherapy. Subjects were assigned to one of four response groups: complete remission (“CR”); complete remission with incomplete count recovery (“CRi”); morphologic leukemia-free state (“MLFS”); persistent disease (“PD”). Complete remission was defined as bone marrow blasts <5%; absence of circulating blasts and blasts with Auer rods; absence of extramedullary disease; ANC ≥1.0×10^9/L and platelets ≥100,000×10^9/L. Complete remission with incomplete recovery was defined as: all CR criteria except for residual neutropenia (<1.0×10^9/L) or thrombocytopenia (<100,000×10^9/L). Morphologic leukemia-free state was defined as: bone marrow blasts <5%; absence of blasts with Auer rods; absence of extramedullary disease; no hematologic recovery required. Persistent disease was defined as: bone marrow blasts >5%.
# Outcomes shown below provide data for Phase 1 (Example 13, all cohorts combined), Phase 2, and Total (Phase 1 and Phase 2) subject populations.
# [3] = test system: acute myeloid leukemia (AML); experiment: Clinical outcomes, newly diagnosed older AML subjects, sodium salt infusion with 7+3; type: in vivo, human; conditions: newly diagnosed AML ≥60 y
# Experimental: In this study, 25 human subjects who were newly diagnosed at age 60 or older with acute myeloid leukemia (AML) were selected for this study. Subjects were not disqualified for prior treatment or diagnosis for MDS or CMML.
# Each subject received a total of 19 infusions of 10 mg/kg/dose of the compound of Formula (I), administered as the sodium salt, over 10 days with a nominal infusion duration of 20 minutes. The formulation for the infusion solution was as follows: […]
# The first dose of a compound of Formula (I) was administered 24 hours±1 hour prior to the first dose of 7+3 (cytarabine and idarubicin) chemotherapy as a sentinel dose to evaluate the effect of the compound of Formula (I) alone (i.e., a single dose of 10 mg/kg the day before the first chemotherapy day). The compound of Formula (I) was then administered every 12 hours±1 hour on chemotherapy days (i.e., 20 mg/kg per day on chemotherapy days) and for two days following the last dose of chemotherapy. […] 7+3 (cytarabine and idarubicin) chemotherapy was administered on Days 2-8 comprising a continuous IV infusion of cytarabine 100 mg/m^2/d over seven days (168 hours, from days 2-8), and idarubicin 12 mg/m^2/d IV for the first three consecutive days ([…], from days 2-4).
# as §1
compound,measurement,setting,value
CC[C@@H]1CC(C(=O)NCCNC(=O)CCOCCOCCOCCOCCOCCOCCOCCOCCOCCOCCOCCOC)C[C@@H](O[C@@H]2O[C@@H](CO)[C@H](O)C(O[C@@H](CC3CCCCC3)C(=O)O)C2NC(C)=O)C1OC1O[C@@H](C)C(O)[C@H](O)[C@@H]1O (stereo partly drawn) [compound of Formula (I)],"adverse events vs exposure (AUC, cumulative AUC, Cmax)",[1],"no strong tendency toward increased AEs, nor increased severity of AEs with exposure"
same,tumor cell chemosensitivity as determined by circulating leukemic cells,human AML blasts; 5 mg/kg BID 10 days with cytarabine and DNR,marked enhancement of tumor cell chemosensitivity
same,numbers of AML blasts vs cytarabine and DNR alone,human AML blasts; 40 mg/kg with cytarabine and DNR,fewer numbers of AML blasts
same,minimally active murine dose that augmented cytarabine and DNR survival benefits,human AML blasts; with cytarabine and DNR,10 mg/kg per day
same,response rate (CR/CRi),[2]; after a single course of induction treatment with MEC,over 40%
same,severe oral mucositis rate,[2]; with MEC,2-3%
same,"one-year survival rate, MRD negative subjects","[2]; with MEC, RP2D 10 mg/kg/dose",73%
same,"one-year survival rate, all subjects","[2]; with MEC, RP2D 10 mg/kg/dose",35%
same,median overall survival,"[2]; with MEC, RP2D 10 mg/kg/dose, 95% CI 5.7-11.4",8.8 months
same,"one-year overall survival rate, all subjects",[3],52%
same,"one-year survival rate, MRD negative subjects",[3],60%
same,severe oral mucositis rate,[3],0%
same,median event-free survival,[3]; 95% CI 3-12.6,9.2 months
same,median overall survival,[3]; 95% CI lower 9.9,12.6 months
same,Oral Mucositis Events Grades 3/4,[3]; N = 25,0 n
